Measurements published in patent publication US11147883B2, “Targeted delivery of drugs, therapeutic nucleic acids and functional nucleic acids to mammalian cells via intact killed bacterial cells” (EnGeneIC Molecular Delivery Pty Ltd, priority 2006, dated 2021).

Tested on: human breast cancer cells MDA-MB-468 xenograft
Test: Human breast cancer MDA-MB-468 xenograft in nude mice, i.v. treatment, tumor volume
Format: in vivo, Balb/c nu/nu mice
Details: i.v. doses on days 21, 28 and 34, 1×10^8 bacteria/dose or free Doxorubicin 7 mg/kg
Procedure: An anti-EGFR monoclonal antibody was selected because the xenografted cells were human breast cancer cells MDA-MB-468 that are known to overexpress the EGF receptor on the cell surface.
Human breast adenocarcinoma cells (MDA-MB-468, ATCC; human mammary epithelial cells; non-phagocytic) were grown in tissue culture to full confluency in T-75 flasks in RPMI 1640 medium supplemented with 5% Bovine Calf Serum (GIBCO-BRL Life Technologies, Invitrogen Corporation, Carlsbad, Calif., USA) and glutamine (Invitrogen) in a humidified atmosphere of 95% air and 5% CO2 at 37° C. 1×10^6 cells in 50 uL serum-free media together with 50 uL growth factor reduced matrigel (BD Biosciences, Franklin Lakes, N.J., USA) were injected subcutaneously between the shoulder blades of each mouse using a 23-gauge needle. The tumors were measured twice a week using an electronic digital caliper (Mitutoyo, Japan, precision to 0.001) and mean tumor volume was calculated using the formula, length (mm)×width^2 (mm)×0.5=volume (mm^3). 16 days post-implantation, the tumors reached volumes between 40 mm^3 and 70 mm^3, and mice were randomized to four different groups of five per group.
The experiment was designed as follows. Group 1 (control) received an i.v. dose of 100 μl of sterile physiological saline. Group 2 (control) received an i.v. dose of free Doxorubicin (7 mg/kg of mouse body weight). […]

With `COc1cccc2c1C(=O)c1c(O)c3c(c(O)c1C2=O)C[C@@](O)(C(=O)CO)C[C@@H]3O[C@H]1C[C@H](N)[C@H](O)[C@H](C)O1` [free doxorubicin, Doxorubicin] the “anti-tumor effect (tumor volume, FIG. 1)” value was “no anti-tumor effects”.
